Measured values: US8697747B2, “Enhancing coagulation or reducing fibrinolysis” (THe UAB Research Foundation, priority 2009, dated 2014)

What was measured:
[1] = system: Factor XIII (FXIII) deficient plasma; test: Thrombelastographic coagulation kinetics, Celite-activated FXIII deficient plasma; assay type: biochemical, human
Method: Pooled normal plasma (George King Bio-Medical, Overland Park, Kans.) anticoagulated with sodium citrate was utilized for experimentation. […] Factor XIII (FXIII) deficient plasma anticoagulated with sodium citrate was also obtained from George King Bio-Medical (Overland Park, Kans.).
Plasma Sample Composition. The final volume for all subsequently described plasma sample mixtures was 359.4 μL. […] (Motterlini et al., Expert Opin Investig Drugs, 14:1305-1318 (2005), which is incorporated by reference herein in its entirety).
Clot Lifespan Model Analyses. Plasma sample mixtures were placed in a disposable cup in a computer-controlled THROMBELASTOGRAPH® hemostasis system (Model 5000, Haemoscope Corp., Niles, Ill.), with addition of CaCl2 as the last step to initiate clotting. Data were collected for 15 minutes, as normal plasma completes thrombus formation within this interval in this system (Dong et al., Eur J Pharmacol 590:99-104 (2008)).
Statistical Analyses. Data are presented as mean±SD. All conditions described were represented with n=8 experiments, as n=6-8 typically provides statistical power>0.8 in similar analyses (Nielsen et al., Acta Anaesthesiol Scand 49:222-231 (2005) and Nielsen et al., Blood Coagul Fibrinolysis 17:75-81 (2006)). Analyses of the effects of CORM-2 and iCORM-2 on thrombelastographic variables were conducted using one way analysis of variance with the Holm-Sidak test used for post hoc comparisons. Graphical representation of the data was generated with commercially available software (Origin 7.5, OriginLab Corp., Northampton, Mass.). A P value of ≦0.05 was considered significant.

[2] = system: prothrombin deficient plasma; test: Thrombelastography in prothrombin deficient plasma with purified prothrombin; assay type: biochemical, human; details: mean ± SD
Method: Plasma types, purified proteins and compounds. Prothrombin deficient plasma (George King Bio-Medical, Overland Park, Kans.) anticoagulated with sodium citrate was utilized for experimentation concerning the effects of CORM-2 on prothrombin. Purified prothrombin (Enzyme Research Laboratories, South Bend, Ind.) that was 95% pure (10.4 mg/mL, 11.1 U/mg, suspended in 20 mM Tris-HCl in 0.1M NaCl at pH 7.4) was used for experimentation. Fibrinogen deficient plasma (Affinity Biologicals, Inc., Ancaster, Ontario, Canada) anticoagulated with sodium citrate was used in experiments investigating the effects of CORM-2 on fibrinogen. […] CORM-2 and dimethyl sulfoxide (DMSO) were obtained from Sigma-Aldrich, St. Louis, Mo.
Exposure of purified prothrombin to CORM-2. In order to determine if pre-exposure of prothrombin with CORM-2 would enhance coagulation kinetics in prothrombin deficient plasma, 396 μL of pure prothrombin solution was combined with 4 μL of either DMSO or CORM-2 in DMSO for a final concentration of 0 or 100 μM CORM-2. This solution was incubated for 5 min at 37° C. prior to being added to prothrombin deficient plasma for thrombelastographic analyses. A volume of 3.1 μL of incubated solution was added to the final reaction mixture subsequently presented for a final prothrombin activity of 1 U/mL.
Prothrombin deficient plasma experiments. The final volume for experiments involving prothrombin deficient plasma was 359.1-360.7 μL. In experiments involving pre-exposure of prothrombin to 0 or 100 μM CORM-2 (n=7 per concentration), the sample consisted of 326 μL of prothrombin deficient plasma, 3.1 μL of prothrombin solution, 10 μL of tissue factor reagent (0.1% final concentration in dH2O; Instrumentation Laboratory, Lexington, Mass.), and 20 μL of 200 mM CaCl2. In experiments involving simple CORM-2 addition (positive control) to the reactants, the sample mixture consisted of 324 μL of prothrombin deficient plasma, 3.1 μL of prothrombin solution, 3.6 μL of DMSO or CORM-2 in DMSO (final CORM-2 concentration 0 or 100 μM, n=8 per concentration), 10 μL of tissue factor reagent (0.1% final concentration), and 20 μl of 200 mM CaCl2.
Thrombelastographic monitoring. Plasma sample mixtures were placed in a disposable cup in a computer-controlled THROMBELASTOGRAPH® hemostasis system (Model 5000, Haemoscope Corp., Niles, Ill.), with addition of CaCl2 as the last step to initiate clotting. Data were collected until clot strength stabilized. The following previously described variables (Examples 1-3) were determined at 37° C.: Time to maximum rate of thrombus generation (TMRTG): This is the time interval (sec) observed prior to maximum speed of clot growth. Maximum rate of thrombus generation (MRTG): This is the maximum velocity of clot growth observed (dynes/cm^2/sec). Total Thrombus Generation (TTG): This is the total area under the velocity curve during clot growth (dynes/cm^2), representing the amount of clot strength generated during clot growth.
Statistical Analyses. Data obtained from experiments involving prothrombin deficient plasma are presented as mean±SD. Typically, n=6-8 provides statistical power >0.8 in similar analyses (Examples 1 and 2). Analyses of the effects of CORM-2 on thrombelastographic variables were conducted using unpaired, two-tailed Student's t-tests. A P value of <0.05 was considered significant. Graphical representation of the thrombelastographic data derived from experiments with […] deficient plasma was generated with commercially available software (SigmaPlot 11.0, Systat Software, Inc., San Jose, Calif.). Coagulation kinetic model equations were derived with the same software. The difference between the mean values of MRTG or TTG in samples exposed to 0 or 100 μM CORM-2 were determined and expressed as percent difference secondary to CORM-2 exposure in the […] deficient plasma experiments.

[3] = 100 μM, Celite-activated FXIII deficient plasma, mean ± SD, n=8
[4] = 100 μM CORM-2 added to prothrombin deficient plasma mixed with prothrombin, n=8
[5] = purified prothrombin pre-exposed to 100 μM CORM-2, then added to prothrombin deficient plasma, n=7

Q: What does the source list for [C-]#[O+].[C-]#[O+].[C-]#[O+].[C-]#[O+].[C-]#[O+].[C-]#[O+].[Cl][Ru][Cl].[Cl][Ru][Cl] [CORM-2, tricarbonyldichlororuthenium (II) dimer]?
A: MRTG (maximum rate of thrombus generation) [1, 3]: 9.1 ± 1.2 dynes/cm^2/sec; TMRTG (time to maximum rate of thrombus generation) [1, 3]: 296 ± 13 s; TTG (total thrombus generation) [1, 3]: 163 ± 21 dynes/cm^2; equivalent replacement of FXIII activity with regard to enhancement of coagulation kinetics ([1]; addition to FXIII-deficient plasma): 100%; MRTG (maximum rate of thrombus generation) [2, 4]: 9.17 ± 0.36 dynes/cm^2/sec; TMRTG (time to maximum rate of thrombus generation) [2, 4]: 1.85 ± 0.04 min; TTG (total thrombus generation) [2, 4]: 152 ± 7 dynes/cm^2; MRTG (maximum rate of thrombus generation) [2, 5]: 4.65 ± 0.99 dynes/cm^2/sec; TMRTG (time to maximum rate of thrombus generation) [2, 5]: 2.15 ± 0.56 min; TTG (total thrombus generation) [2, 5]: 88 ± 3 dynes/cm^2
